According to patent US11492335B2, “Aryl or heteroaryl triazolone derivatives or salts thereof, or pharmaceutical compositions comprising the same” (YUHAN CORPORATION, priority 2018, dated 2022):
Structures can show the parent of a compound that is named as a salt. Where two headings read alike, the source gives them in different places.

What was measured:
Assay type in all cases: biochemical
[1] = target: T1, recombinant human MAO-B (monoamine oxidase-B) (Homo sapiens, UniProt P27338); experiment: Activity on recombinant human MAO-B, Amplex Red method, 1 mM benzylamine substrate; conditions: read-out: Inhibitory Activity (IC50, nM) MAO-B
T1 construct: purchased Sigma-Aldrich
T1 sequence (P27338 1-520): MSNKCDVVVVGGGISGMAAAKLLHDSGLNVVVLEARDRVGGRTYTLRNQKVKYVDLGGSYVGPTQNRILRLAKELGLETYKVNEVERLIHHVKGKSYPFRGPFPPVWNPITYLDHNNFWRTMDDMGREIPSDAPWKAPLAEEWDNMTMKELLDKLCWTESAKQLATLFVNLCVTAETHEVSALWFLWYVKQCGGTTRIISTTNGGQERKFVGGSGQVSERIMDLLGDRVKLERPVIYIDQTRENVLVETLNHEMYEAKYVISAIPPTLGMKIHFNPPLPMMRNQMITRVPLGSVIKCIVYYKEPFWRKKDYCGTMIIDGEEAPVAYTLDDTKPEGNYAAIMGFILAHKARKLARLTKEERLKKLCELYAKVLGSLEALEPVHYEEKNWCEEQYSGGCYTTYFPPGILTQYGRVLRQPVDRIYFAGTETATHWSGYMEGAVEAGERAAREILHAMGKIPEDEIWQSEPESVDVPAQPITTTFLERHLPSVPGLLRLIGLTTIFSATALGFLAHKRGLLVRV
Procedure, shortened: (§1)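 HRP-coupled Amplex Red H2O2 assay, 50 mM sodium phosphate pH 7.4; compounds (8-point 1:3 series, final DMSO <1%) preincubated with enzyme 30 min at 37° C, then 200 uM Amplex Red, 1 U/mL HRP and substrate (MAO-A 0.5 mM tyramine; MAO-B 1 mM benzylamine) added. Resorufin fluorescence (ex 544/em 590 nm) read over 1-2 h; IC50 from four-parameter logistic fit.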

[2] = target: T2, recombinant human MAO-A (monoamine oxidase-A) (Homo sapiens, UniProt P21397); experiment: Activity on recombinant human MAO-A, Amplex Red method, 0.5 mM tyramine substrate; conditions: read-out: Inhibitory Activity (IC50, nM) MAO-A
T2 construct: purchased Sigma-Aldrich
T2 sequence (P21397 1-527): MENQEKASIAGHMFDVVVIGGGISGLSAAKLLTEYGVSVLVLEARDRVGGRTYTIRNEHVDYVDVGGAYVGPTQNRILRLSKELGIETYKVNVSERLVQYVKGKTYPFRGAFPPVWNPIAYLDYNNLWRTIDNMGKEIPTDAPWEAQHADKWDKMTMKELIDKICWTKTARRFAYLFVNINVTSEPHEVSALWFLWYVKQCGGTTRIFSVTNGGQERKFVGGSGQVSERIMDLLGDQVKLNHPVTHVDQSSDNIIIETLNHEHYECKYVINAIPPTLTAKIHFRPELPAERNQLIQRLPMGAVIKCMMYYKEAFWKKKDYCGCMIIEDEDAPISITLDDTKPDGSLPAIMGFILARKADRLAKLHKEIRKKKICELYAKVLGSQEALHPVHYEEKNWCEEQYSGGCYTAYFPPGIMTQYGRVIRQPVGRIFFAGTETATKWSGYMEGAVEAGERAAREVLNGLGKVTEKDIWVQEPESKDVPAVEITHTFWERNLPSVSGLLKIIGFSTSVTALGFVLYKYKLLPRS
Procedure, shortened: as §1

recombinant human VAP-1 = target: T3, recombinant human VAP-1 (Homo sapiens, UniProt Q16853); experiment: Activity on recombinant human VAP-1, Amplex Red HRP-coupled hydrogen peroxide assay, benzylamine substrate; conditions: recombinant human VAP-1, benzylamine substrate, read-out: Inhibitory Activity (IC50, nM) human VAP-1
T3 construct: purchased R&D systems
T3 sequence (Q16853 1-763): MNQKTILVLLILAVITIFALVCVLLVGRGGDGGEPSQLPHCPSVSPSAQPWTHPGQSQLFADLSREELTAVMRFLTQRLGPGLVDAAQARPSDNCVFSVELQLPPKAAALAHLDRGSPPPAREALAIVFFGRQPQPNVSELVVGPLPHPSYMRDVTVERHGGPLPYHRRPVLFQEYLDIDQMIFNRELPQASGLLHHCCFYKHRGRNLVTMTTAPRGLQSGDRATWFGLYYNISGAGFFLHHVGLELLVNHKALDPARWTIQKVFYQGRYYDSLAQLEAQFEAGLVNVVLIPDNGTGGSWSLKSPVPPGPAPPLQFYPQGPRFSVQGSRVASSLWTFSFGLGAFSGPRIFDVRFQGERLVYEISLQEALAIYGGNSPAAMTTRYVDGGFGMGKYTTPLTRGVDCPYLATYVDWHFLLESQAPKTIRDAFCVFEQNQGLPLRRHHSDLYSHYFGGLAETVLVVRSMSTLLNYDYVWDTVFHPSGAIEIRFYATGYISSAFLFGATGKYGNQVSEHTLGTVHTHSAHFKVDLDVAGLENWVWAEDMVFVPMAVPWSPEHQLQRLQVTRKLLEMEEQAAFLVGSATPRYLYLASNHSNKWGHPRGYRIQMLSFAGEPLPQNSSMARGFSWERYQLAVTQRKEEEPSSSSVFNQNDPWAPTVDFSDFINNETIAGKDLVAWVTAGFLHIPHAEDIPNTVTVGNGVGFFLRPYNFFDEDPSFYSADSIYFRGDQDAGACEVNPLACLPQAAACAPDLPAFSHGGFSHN
Procedure, shortened: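 8-point 1:3 dilutions, final DMSO <1%; 30 min enzyme preincubation, 37 °C, pH 7.4 phosphate. Start: 1 mM benzylamine + 200 uM Amplex Red + 1 U/mL HRP. Read ex544/em590 over 1-2 h; % rate decrease vs DMSO control, 4-parameter logistic IC50.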

[3] = target: T4, recombinant human DAO (diamine oxidase) (Homo sapiens, UniProt P19801); experiment: Activity on recombinant human DAO, Amplex Red method, 1 mM putrescine substrate
T4 construct: purchased R&D systems
T4 sequence (P19801 20-751): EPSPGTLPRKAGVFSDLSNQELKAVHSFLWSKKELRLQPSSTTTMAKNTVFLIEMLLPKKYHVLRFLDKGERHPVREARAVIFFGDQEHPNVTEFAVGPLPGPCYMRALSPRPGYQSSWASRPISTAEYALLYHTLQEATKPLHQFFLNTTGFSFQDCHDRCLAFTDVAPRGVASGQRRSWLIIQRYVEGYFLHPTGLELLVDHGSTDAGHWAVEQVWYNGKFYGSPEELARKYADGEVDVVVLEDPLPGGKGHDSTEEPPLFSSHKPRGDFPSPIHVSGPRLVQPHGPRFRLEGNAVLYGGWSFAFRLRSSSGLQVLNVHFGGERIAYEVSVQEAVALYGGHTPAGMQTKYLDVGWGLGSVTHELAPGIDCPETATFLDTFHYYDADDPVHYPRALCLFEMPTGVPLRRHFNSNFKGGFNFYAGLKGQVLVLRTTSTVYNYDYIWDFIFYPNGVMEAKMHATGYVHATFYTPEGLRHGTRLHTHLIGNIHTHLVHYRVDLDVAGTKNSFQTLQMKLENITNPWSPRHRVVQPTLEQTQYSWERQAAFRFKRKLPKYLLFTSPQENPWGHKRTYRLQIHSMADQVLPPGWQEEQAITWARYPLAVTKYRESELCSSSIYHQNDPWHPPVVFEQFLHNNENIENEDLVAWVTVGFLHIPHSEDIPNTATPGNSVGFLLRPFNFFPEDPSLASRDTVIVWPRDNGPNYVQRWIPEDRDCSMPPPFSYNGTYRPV
Procedure, shortened: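 Inhibition of recombinant human DAO (diamine oxidase, R&D systems) was assessed with the Amplex Red Hydrogen Peroxide Assay Kit. Hydrogen peroxide produced from 1 mM putrescine was detected through an HRP-coupled reaction that converts Amplex Red into fluorescent resorufin, read at 544 nm excitation and 590 nm emission. IC50 values came from four-parameter logistic fits in GraphPad Prism.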

[4] = recombinant human DAO, 1 mM putrescine substrate, read-out: Inhibitory Activity (IC50, nM) DAO
[5] = recombinant human DAO, 1 mM putrescine, * = between 10 and 100 nM, ** = between 300 and 1000 nM, read-out: Inhibitory Activity (IC50, nM) DAO

Q: Cc1ccc(-c2ccc3c(c2)OCO3)nc1-n1cnn(C/C(=C/F)CN)c1=O [Example 213, 2-[(2E)-2-(aminomethyl)-3-fluoroprop-2-en-1-yl]-4-[6-(1,3-benzodioxol-5-yl)-3-methylpyridin-2-yl]-2,4-dihydro-3H-1,2,4-triazol-3-one hydrochloride] was tested. Which IC50 ([1]; 1 mM benzylamine substrate) did it give?
A: > 10000 nM

Q: And the IC50 ([2]; 0.5 mM tyramine substrate)?
A: > 100000 nM

Q: And the IC50 (recombinant human VAP-1)?
A: 29 nM

Q: What about the IC50 [3, 4] of the same compound?
A: 1800 nM

Q: Which results are given for NC/C(=C\F)Cn1ncn(-c2cccc(C3=CCNCC3)c2)c1=O [Example 48, 2-[(2E)-2-(aminomethyl)-3-fluoroprop-2-en-1-yl]-4-[3-(1,2,3,6-tetrahydropyridin-4-yl)phenyl]-2,4-dihydro-3H-1,2,4-triazol-3-one dihydrochloride]?
A: IC50 ([1]; 1 mM benzylamine): > 10000 nM; IC50 ([2]; 0.5 mM tyramine): > 100000 nM; IC50 (recombinant human VAP-1; 30 min preincubation at 37° C.): 0.56 nM; IC50 [3]: 0.79 nM

Q: What does the source list for Cc1c(-c2ccc(S(C)(=O)=O)cc2)cccc1-n1cnn(C/C(=C/F)CN)c1=O [Example 106, 2-[(2E)-2-(aminomethyl)-3-fluoroprop-2-en-1-yl]-4-[2-methyl-4′-(methylsulfonyl)biphenyl-3-yl]-2,4-dihydro-3H-1,2,4-triazol-3-one]?
A: IC50 ([1]; 1 mM benzylamine): > 10000 nM; IC50 ([2]; 0.5 mM tyramine): > 100000 nM; IC50 (recombinant human VAP-1; 30 min preincubation at 37° C.): 4.7 nM; IC50 [3, 5]: 310 nM

Q: Which IC50 ([1]; 1 mM benzylamine) does the source give for Cc1cc(-n2cnn(C/C(=C/F)CN)c2=O)cnc1-c1ccc2c(c1)OCO2 [Example 117, 2-[(2E)-2-(aminomethyl)-3-fluoroprop-2-en-1-yl]-4-[6-(1,3-benzodioxol-5-yl)-5-methylpyridin-3-yl]-2,4-dihydro-3H-1,2,4-triazol-3-one] here?
A: 32 nM

Q: And the IC50 ([2]; 0.5 mM tyramine)?
A: > 100000 nM

Q: And the IC50 (recombinant human VAP-1; 30 min preincubation at 37° C.)?
A: 0.21 nM

Q: What about the IC50 [3, 5] of the same compound?
A: 2.5 nM

Q: NC/C(=C\F)Cn1ncn(-c2cc(/C=C/c3ccccc3)ccn2)c1=O [Example 236, 2-[(2E)-2-(aminomethyl)-3-fluoroprop-2-en-1-yl]-4-{4-[(E)-2-phenylethenyl]pyridin-2-yl}-2,4-dihydro-3H-1,2,4-triazol-3-one hydrochloride] was tested. Which IC50 ([1]; 1 mM benzylamine substrate) did it give?
A: 16 nM

Q: What about the IC50 ([2]; 0.5 mM tyramine substrate) of the same compound?
A: > 10000 nM

Q: And the IC50 (recombinant human VAP-1)?
A: 0.8 nM

Q: And the IC50 [3, 4]?
A: 6.4 nM

Q: With Cc1cc(-n2cnn(C/C(=C/F)CN)c2=O)ncc1-c1ccc2c(c1)OCO2 [Example 159, 2-[(2E)-2-(aminomethyl)-3-fluoroprop-2-en-1-yl]-4-[5-(1,3-benzodioxol-5-yl)-4-methylpyridin-2-yl]-2,4-dihydro-3H-1,2,4-triazol-3-one] as the compound, how does the IC50 ([1]; 1 mM benzylamine substrate) read?
A: 74 nM

Q: What about the IC50 ([2]; 0.5 mM tyramine substrate) of the same compound?
A: 1510 nM

Q: What about the IC50 (recombinant human VAP-1) of the same compound?
A: 0.21 nM

Q: And the IC50 [3, 4]?
A: 1.8 nM

Q: For CN(C)c1ccc(-c2cccc(-n3cnn(C/C(=C/F)CN)c3=O)c2)cc1 [Example 51, 2-[(2E)-2-(aminomethyl)-3-fluoroprop-2-en-1-yl]-4-[4′-(dimethylamino)biphenyl-3-yl]-2,4-dihydro-3H-1,2,4-triazol-3-one hydrochloride], which IC50 ([1]; 1 mM benzylamine) is on record?
A: 5600 nM

Q: And the IC50 ([2]; 0.5 mM tyramine)?
A: > 100000 nM

Q: And the IC50 (recombinant human VAP-1; 30 min preincubation at 37° C.)?
A: 2 nM

Q: What about the IC50 [3, 5] of the same compound?
A: > 10000 nM

Q: Which results are given for NC/C(=C\F)Cn1ncn(-c2cccc(-c3ccc(C(F)(F)F)nc3)c2)c1=O [Example 84, 2-[(2E)-2-(aminomethyl)-3-fluoroprop-2-en-1-yl]-4-{3-[6-(trifluoromethyl)pyridin-3-yl]phenyl}-2,4-dihydro-3H-1,2,4-triazol-3-one hydrochloride]?
A: IC50 ([1]; 1 mM benzylamine): 3000 nM; IC50 ([2]; 0.5 mM tyramine): > 100000 nM; IC50 (recombinant human VAP-1; 30 min preincubation at 37° C.): 0.78 nM; IC50 [3, 5]: < 10 nM

Q: How did the IC50 ([1]; 1 mM benzylamine) turn out when Cc1cc(-c2cccc(-c3noc(C(C)C)n3)c2)cnc1-n1cnn(C/C(=C/F)CN)c1=O [Example 143, 2-[(2E)-2-(aminomethyl)-3-fluoroprop-2-en-1-yl]-4-(3-methyl-5-{3-[5-(propan-2-yl)-1,2,4-oxadiazol-3-yl]phenyl}pyridin-2-yl)-2,4-dihydro-3H-1,2,4-triazol-3-one hydrochloride] was run?
A: 5340 nM

Q: And the IC50 ([2]; 0.5 mM tyramine)?
A: 112000 nM

Q: What about the IC50 (recombinant human VAP-1; 30 min preincubation at 37° C.) of the same compound?
A: 0.43 nM

Q: And the IC50 [3, 5]?
A: 12 nM

Q: Which IC50 ([1]; 1 mM benzylamine) does the source give for NC/C(=C\F)Cn1ncn(-c2cccc(-c3ccc(N4CCOCC4)cc3)c2)c1=O [Example 74, 2-[(2E)-2-(aminomethyl)-3-fluoroprop-2-en-1-yl]-4-[4′-(morpholin-4-yl)biphenyl-3-yl]-2,4-dihydro-3H-1,2,4-triazol-3-one hydrochloride] here?
A: > 10000 nM

Q: And the IC50 ([2]; 0.5 mM tyramine)?
A: > 100000 nM

Q: What about the IC50 (recombinant human VAP-1; 30 min preincubation at 37° C.) of the same compound?
A: 0.84 nM

Q: What about the IC50 [3, 5] of the same compound?
A: 282 nM

Q: With NC/C(=C\F)Cn1ncn(-c2cccc(-c3ccc(-c4nnc[nH]4)cc3)c2)c1=O [Example 59, 2-[(2E)-2-(aminomethyl)-3-fluoroprop-2-en-1-yl]-4-[4′-(4H-1,2,4-triazol-3-yl)biphenyl-3-yl]-2,4-dihydro-3H-1,2,4-triazol-3-one] as the compound, how does the IC50 ([1]; 1 mM benzylamine) read?
A: > 10000 nM

Q: What about the IC50 ([2]; 0.5 mM tyramine) of the same compound?
A: > 100000 nM

Q: What about the IC50 (recombinant human VAP-1; 30 min preincubation at 37° C.) of the same compound?
A: 0.62 nM

Q: What about the IC50 [3, 5] of the same compound?
A: < 100 nM
